Counter-ions that a name gives are not always drawn. Like-named read-outs stand apart in the source and are kept apart here. Starred links: 1 amine or outer side, 2 acyl side, 3 side chain; linkers in the order of their positions; H or OH if unused. Positions of bridges follow the written chain, without caps; N, C: chain ends. Non-standard residues stand in square brackets, D forms with d. Residues, ends and D or L forms follow the SMILES beside them. Chains are numbered I, II in the order given. Actinocin(9to1) = Cc1c2oc3c(C)ccc(C(=O)[*:1])c3nc-2c(C(=O)[*:2])c(N)c1=O; NMeV = CN[C@H](C(=O)O)C(C)C; Sar = CNCC(=O)O
How the values were obtained:
Type in all cases: cell-based, Human
MCF7 TP53 KO 5.6 pool = test: Drug screening, resazurin, TP53 KO 5.6 pool
MCF7 TP53 KO 3.4 pool = test: Drug screening, resazurin, TP53 KO 3.4 pool
MCF7 WT Parental pool = test: Drug screening, resazurin, MCF7 wild type parental pool
[1] = ten-day drug treatment, 156.25 nM to 10 μM, resazurin fluorescence

| Compound | TP53 KO 5.6 pool (AUC) (MCF7 TP53 KO 5.6 pool; [1]) | TP53 KO 3.4 pool (AUC) (MCF7 TP53 KO 3.4 pool; [1]) | MCF7 WT Parental pool (AUC) (MCF7 WT Parental pool; [1]) | TP53 KO 5.6 pool (AUC) (MCF7 TP53 KO 5.6 pool) | TP53 KO 3.4 pool (AUC) (MCF7 TP53 KO 3.4 pool) | MCF7 WT Parental pool (AUC) (MCF7 WT Parental pool) |
| --- | --- | --- | --- | --- | --- | --- |
| C[C@]12CC[C@H](O)CC1=CC[C@@H]1[C@@H]2CC[C@]2(C)C(c3cccnc3)=CC[C@@H]12 [Abiraterone] | 9.254 | 8.785 | 8.378 | – | – | – |
| CN(C)C/C=C/C(=O)Nc1cc2c(Nc3ccc(F)c(Cl)c3)ncnc2cc1O[C@H]1CCOC1 [Afatanib] | 2.139 | 2.48 | 2.734 | – | – | – |
| CCc1cc2c(cc1N1CCC(N3CCOCC3)CC1)C(C)(C)c1[nH]c3cc(C#N)ccc3c1C2=O [Alectinib] | 2.7 | 4.51 | 5.763 | – | – | – |
| CN(C)c1nc(N(C)C)nc(N(C)C)n1 [Altretamine] | 8.473 | 8.874 | 8.059 | – | – | – |
| NCCCNCCSP(=O)(O)O [Amifostine] | 9.73 | 9.108 | 8.456 | – | – | – |
| NCC(=O)CCC(=O)O [Aminolevulinic Acid] | 8.787 | 9.101 | 8.749 | – | – | – |
| CC(C)(C#N)c1cc(Cn2cncn2)cc(C(C)(C)C#N)c1 [Anastrozole] | 8.828 | 8.067 | 8.01 | – | – | – |
| CNC(=O)c1ccccc1Sc1ccc2c(/C=C/c3ccccn3)n[nH]c2c1 [Axitinib] | 3.786 | 3.743 | 2.581 | – | – | – |
| Nc1ncn([C@@H]2O[C@H](CO)[C@@H](O)[C@H]2O)c(=O)n1 [Azactidine] | 6.373 | 9.05 | 8.861 | – | – | – |
| O=C(/C=C/c1cccc(S(=O)(=O)Nc2ccccc2)c1)NO [Belinostat] | 1.322 | 1.525 | 1.423 | – | – | – |
| Cn1c(CCCC(=O)O)nc2cc(N(CCCl)CCCl)ccc21 [Bendamustine Hydrochloride] | – | – | – | 10.23 | 9.503 | 9.021 |
| CC(C)C[C@H](NC(=O)[C@H](Cc1ccccc1)NC(=O)c1cnccn1)B(O)O [Bortezomib] | 0.7486 | 0.673 | 0.6974 | – | – | – |
| COc1cc(Nc2c(C#N)cnc3cc(OCCCN4CCN(C)CC4)c(OC)cc23)c(Cl)cc1Cl [Bosutinib] | 9.588 | 9.254 | 8.686 | – | – | – |
| CS(=O)(=O)OCCCCOS(C)(=O)=O [Busulfan] | 8.834 | 9.336 | 9.118 | – | – | – |
| CO[C@H]1C(=O)[C@]2(C)[C@@H](OC)C[C@H]3OC[C@@]3(OC(C)=O)[C@H]2[C@H](OC(=O)c2ccccc2)[C@]2(O)C[C@H](OC(=O)[C@H](O)[C@@H](NC(=O)OC(C)(C)C)c3ccccc3)C(C)=C1C2(C)C [Cabazitaxel] | 1.713 | 1.658 | 1.406 | – | – | – |
| COc1cc2nccc(Oc3ccc(NC(=O)C4(C(=O)Nc5ccc(F)cc5)CC4)cc3)c2cc1OC [Cabozantinib] | 4.52 | 4.376 | 4.126 | – | – | – |
| CCCCCOC(=O)Nc1nc(=O)n([C@@H]2O[C@H](C)[C@@H](O)[C@H]2O)cc1F [Capecitabine] | 9.284 | 9.208 | 9.004 | – | – | – |
| N.N.O=C([O-])C1(C(=O)[O-])CCC1.[Pt+2] [Carboplatin] | 8.343 | 9.302 | 8.83 | – | – | – |
| CC(C)C[C@H](NC(=O)[C@H](CCc1ccccc1)NC(=O)CN1CCOCC1)C(=O)N[C@@H](Cc1ccccc1)C(=O)N[C@@H](CC(C)C)C(=O)[C@@]1(C)CO1 [Carfilzomib] | 0.6678 | 0.6462 | 0.6359 | – | – | – |
| O=NN(CCCl)C(=O)NCCCl [Carmustine] | 9.965 | 9.826 | 9.622 | – | – | – |
| Cc1cc(Nc2ncc(Cl)c(Nc3ccccc3S(=O)(=O)C(C)C)n2)c(OC(C)C)cc1C1CCNCC1 [Ceritinib] | 1.421 | 1.482 | 1.637 | – | – | – |
| O=C(O)CCCc1ccc(N(CCCl)CCCl)cc1 [Chlorambucil] | 17.6 | 16.5 | 16.08 | – | – | – |
| N.N.[Cl][Pt][Cl] [Cisplatin] | 7.44 | 6.27 | 7.335 | – | – | – |

| Compound | TP53 KO 5.6 pool (AUC) (MCF7 TP53 KO 5.6 pool; [1]) | TP53 KO 3.4 pool (AUC) (MCF7 TP53 KO 3.4 pool; [1]) | MCF7 WT Parental pool (AUC) (MCF7 WT Parental pool; [1]) | TP53 KO 5.6 pool (AUC) (MCF7 TP53 KO 5.6 pool) | TP53 KO 3.4 pool (AUC) (MCF7 TP53 KO 3.4 pool) | MCF7 WT Parental pool (AUC) (MCF7 WT Parental pool) |
| --- | --- | --- | --- | --- | --- | --- |
| Nc1nc(Cl)nc2c1ncn2[C@H]1C[C@H](O)[C@@H](CO)O1 [Cladribine] | 3.956 | 3.767 | 5.569 | – | – | – |
| Nc1nc(Cl)nc2c1ncn2[C@@H]1O[C@H](CO)[C@@H](O)[C@@H]1F [Clofarabine] | 3.74 | 3.085 | 5.232 | – | – | – |
| CC1=C2C[C@H]3[C@@H](CC=C4C[C@@H](O)CC[C@@]43C)[C@@H]2CC[C@]12O[C@@H]1C[C@H](C)CN[C@H]1[C@H]2C [Clyclopamine] | 9.093 | 9.033 | 9.488 | – | – | – |
| O=C(c1ccc(F)c(F)c1Nc1ccc(I)cc1F)N1CC(O)([C@@H]2CCCCN2)C1 [Cobimetinib] | 8.041 | 4.851 | 7.621 | – | – | – |
| C[C@@H](Oc1cc(-c2cnn(C3CCNCC3)c2)cnc1N)c1c(Cl)ccc(F)c1Cl [Crizotinib] | 2.941 | 2.325 | 2.549 | – | – | – |
| O=P1(N(CCCl)CCCl)NCCCO1 (stereo not shown) [Cyclophosphamide] | – | – | – | 16.92 | 15.2 | 16.16 |
| Nc1ccn([C@@H]2O[C@H](CO)[C@@H](O)[C@@H]2O)c(=O)n1 [Cytarabine Hydrochloride] | – | – | 4.771 | – | – | – |
| Cc1c2oc3c(C)ccc(C(=O)N[C@@H]4C(=O)N[C@H](C(C)C)C(=O)N5CCC[C@H]5C(=O)N(C)CC(=O)N(C)[C@@H](C(C)C)C(=O)O[C@@H]4C)c3nc-2c(C(=O)N[C@@H]2C(=O)N[C@H](C(C)C)C(=O)N3CCC[C@H]3C(=O)N(C)CC(=O)N(C)[C@@H](C(C)C)C(=O)O[C@@H]2C)c(N)c1=O [Dactinomycin] (I: T[dV]P[Sar][NMeV] / II: T[dV]P[Sar][NMeV]; ester I:1-I:C, II:1-II:C; linker I:N-II:N via Actinocin(9to1)) | 1.65 | 1.588 | 2.01 | – | – | – |
| Cc1nc(Nc2ncc(C(=O)Nc3c(C)cccc3Cl)s2)cc(N2CCN(CCO)CC2)n1 [Dasatinib] | 4.43 | 4.014 | 4.282 | – | – | – |
| C[C@@H](CN1CC(=O)NC(=O)C1)N1CC(=O)NC(=O)C1 [Dexrazoxane] | 8.868 | 8.753 | 8.317 | – | – | – |
| CC(=O)O[C@@]12CO[C@@H]1C[C@H](O)[C@@]1(C)C(=O)[C@H](O)C3=C(C)[C@@H](OC(=O)[C@H](O)[C@@H](NC(=O)OC(C)(C)C)c4ccccc4)C[C@@](O)([C@@H](OC(=O)c4ccccc4)[C@H]21)C3(C)C [Docetaxel] | 1.663 | 1.639 | 1.432 | – | – | – |
| COc1cccc2c1C(=O)c1c(O)c3c(c(O)c1C2=O)C[C@@](O)(C(=O)CO)C[C@@H]3O[C@H]1C[C@H](N)[C@H](O)[C@H](C)O1 [Doxorubicin Hydrochloride] | – | – | 0.9435 | 1.009 | 0.9013 | – |
| CNC(=O)c1ccc(N2C(=S)N(c3ccc(C#N)c(C(F)(F)F)c3)C(=O)C2(C)C)cc1F [Enzalutamide] | 8.634 | 8.864 | 8.931 | – | – | – |
| COc1cccc2c1C(=O)c1c(O)c3c(c(O)c1C2=O)C[C@@](O)(C(=O)CO)C[C@@H]3O[C@H]1C[C@H](N)[C@@H](O)[C@H](C)O1 [Epirubicin Hydrochloride] | – | – | 0.8944 | 1.019 | 0.9399 | – |
| Cc1c(C(=O)Nc2ccc(N3C[C@@H](C)O[C@@H](C)C3)nc2)cccc1-c1ccc(OC(F)(F)F)cc1 [Erismodgib] | 7.491 | 6.922 | 7.435 | – | – | – |
| C=C1C[C@@H]2[C@H](CC[C@]3(C)C(=O)CC[C@@H]23)[C@@]2(C)C=CC(=O)C=C12 [Exemestane] | – | – | 8.564 | – | – | – |
| CC(=O)[C@]1(O)Cc2c(O)c3c(c(O)c2[C@@H](O[C@H]2C[C@H](N)[C@H](O)[C@H](C)O2)C1)C(=O)c1ccccc1C3=O [Idarubicin Hydrochloride] | – | – | 0.958 | – | – | – |
| O=C1c2c(O)ccc(O)c2C(=O)c2c(NCCNCCO)ccc(NCCNCCO)c21 [Mitoxantrone] | – | – | 2.338 | – | – | – |
| OC[C@H]1O[C@@H](n2cnc3c2NC=NC[C@H]3O)C[C@@H]1O [Pentostatin] | – | – | 10.31 | – | – | – |
| CNC(=O)c1cc(Oc2ccc(NC(=O)Nc3ccc(Cl)c(C(F)(F)F)c3)cc2)ccn1 [Sorafenib] | – | – | 3.981 | – | – | – |
| CO[C@H]1C[C@@H]2CC[C@@H](C)[C@@](O)(O2)C(=O)C(=O)N2CCCC[C@H]2C(=O)O[C@H]([C@H](C)C[C@@H]2CC[C@@H](OC(=O)C(C)(CO)CO)[C@H](OC)C2)CC(=O)[C@H](C)/C=C(\C)[C@@H](O)[C@@H](OC)C(=O)[C@H](C)C[C@H](C)/C=C/C=C/C=C/1C [Temsirolimus] | – | – | 2.486 | – | – | – |
| Nc1nc2nc[nH]c2c(=S)[nH]1 [Thioguanine] | – | – | 4.122 | – | – | – |
| Dabrafenib Mesylate | – | 14.73 | 14.9 | – | – | – |
